This note sets out measurements from paper PMC12473165, “Theranostic Potential of a New ^64Cu-Labeled NOTA-R954 Peptide Conjugate for Kinin B1R Expressing Prostate Cancer” (Pharmaceutics, 2025).

Square brackets hold non-standard residues; d marks the D form. Peptide text beside a SMILES is read from it. Oic = O=C(O)[C@@H]1C[C@@H]2CCCC[C@@H]2N1; d2Nal = N[C@H](Cc1ccc2ccccc2c1)C(=O)O; αMeF = C[C@](N)(Cc1ccccc1)C(=O)O; Orn = NCCC[C@H](N)C(=O)O Some results are limits rather than exact numbers.

Experiment [1] addresses T1, native hB1R (Homo sapiens, UniProt P46663).
T1 construct: from tissue; host or cells: isolated human umbilical vein (HUV)
T1 sequence (P46663 1-353): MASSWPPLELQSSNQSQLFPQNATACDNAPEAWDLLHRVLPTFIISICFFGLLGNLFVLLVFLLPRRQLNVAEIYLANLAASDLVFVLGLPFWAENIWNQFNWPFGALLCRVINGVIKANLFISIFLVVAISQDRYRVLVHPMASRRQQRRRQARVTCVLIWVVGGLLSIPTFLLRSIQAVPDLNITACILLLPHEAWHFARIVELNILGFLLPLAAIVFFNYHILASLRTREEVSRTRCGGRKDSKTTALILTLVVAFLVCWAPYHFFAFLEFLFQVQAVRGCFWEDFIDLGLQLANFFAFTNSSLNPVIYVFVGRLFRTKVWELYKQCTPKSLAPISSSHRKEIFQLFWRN
The experiment is described as follows: Human umbilical vein (HUV) contractility bioassay, B1R. Particulars: isolated human umbilical vein contraction, DBK agonist at submaximal concentration; means of 2 independent experiments. On the procedure: The potency (apparent affinity) of non-radioactive NOTA-βAla-R954 peptide conjugates at native inducible B1R was assessed using human tissue bioassays with isolated umbilical veins, as previously described. Collection of umbilical cords for these bioassays was approved by the CHUS Human Research Ethics Committee (protocol #97-14; 21 March 1997), and maternal consent was obtained in all cases. Antagonist affinity was expressed in terms of IC50, which represents the molar concentration of an antagonist that reduces the response to a submaximal concentration of the DBK agonist by 50%.

In experiment [2] the target is T2, hB1R (Homo sapiens, UniProt P46663).
T2 sequence (P46663 1-353): T1 sequence (P46663 1-353)
The experiment can be described thus: Radioligand competition binding on HEK293 cells stably expressing hB1R. Also on record: expressed in transfected cells; host or cells: QBI-HEK293A (lentiviral transduction, puromycin selection). Particulars: HEK293 cells stably expressing hB1R; competition with 4 nM [3H]Lys[Leu8]desArg9BK, 1-2 h, serum-free DMEM; means of 2 independent experiments in triplicates; read-out: B1R HEK293 IC50.

Experiment [3] has as its target T3, hB2R (Homo sapiens, UniProt P30411).
T3 sequence (P30411 1-391): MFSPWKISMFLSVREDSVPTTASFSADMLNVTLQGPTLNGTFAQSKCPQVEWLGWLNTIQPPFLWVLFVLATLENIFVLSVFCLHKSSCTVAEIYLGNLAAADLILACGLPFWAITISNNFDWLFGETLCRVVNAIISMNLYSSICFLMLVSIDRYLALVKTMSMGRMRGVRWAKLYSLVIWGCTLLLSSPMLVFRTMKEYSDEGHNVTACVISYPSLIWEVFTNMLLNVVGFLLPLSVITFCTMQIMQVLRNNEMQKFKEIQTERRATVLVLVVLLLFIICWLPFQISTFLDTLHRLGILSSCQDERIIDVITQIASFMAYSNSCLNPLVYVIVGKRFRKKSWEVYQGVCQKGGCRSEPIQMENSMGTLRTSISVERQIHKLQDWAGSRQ
The experiment can be described thus: Human umbilical vein (HUV) contractility bioassay, B2R. Also on record: native (HUV) human kinin B1R and B2R; from tissue; host or cells: isolated human umbilical vein (HUV). Particulars: isolated human umbilical vein contraction; means of 2 independent experiments.

Experiment [4] concerns the target T3, hB2R. The experiment is described as follows: Radioligand competition binding on HEK293 cells stably expressing hB2R. To be noted: competition with 1 nM [3H]BK, 1-2 h, serum-free DMEM, means of 2 independent experiments in triplicates, read-out: B2R HEK293 IC50. On the procedure: Radiolabeled ligand competition binding assays were performed on HEK293 cells stably expressing hB1R or hB2R, as previously described. Cells were cultured in 24-well plates and incubated with 4 nM [^3H]Lys[Leu^8]desArg^9BK (for B1R studies) (ART1583; 90–120 Ci/mmol; American Radiolabeled Chemicals) or 1 nM [^3H]BK (for B2R studies) (NET706; 109 Ci/mmol; Perkin-Elmer, Woodbridge, ON, Canada) in serum-free DMEM for 1–2 h in the absence or presence of increasing concentrations of competitors (10^−11–10^−5M). Radioactivity in the samples was measured using a β-scintillation counter (Tri-Carb 2800; Perkin-Elmer). Binding affinities were expressed as IC50 values, calculated using GraphPad Prism version 8.2.1 software (GraphPad Software, San Diego, CA, USA).

Experiment [5] deals with T2, hB1R. The experiment can be described thus: NFAT-eGFP reporter assay in CHO-hB1R-NFAT-eGFP cells. Type of experiment: cell-based. Also on record: expressed in transfected cells; host or cells: CHO (hB1R-expressing line, then transduced with NFAT-eGFP reporter). The text has this: The pLenti-6V5-NFAT-eGFP vector was generated from the pSIRV-NFAT-eGFP vector (a gift from Peter Steinberger, Addgene plasmid #118031). Briefly, NFAT-eGFP gene was PCR amplified using the following primers: 5′-[…]-3′ and 5′-[…]-3′). The amplified gene was then ligated into the ClaI and AgeI restriction sites of the pLenti-6V5 vector. Lentiviruses were produced using the pLenti-6V5-NFAT-eGFP vector in HEK293T cells and used to transduce a hB1R-expressing CHO cell line, followed by selection with 10 µg/mL blasticidin. […] Clones were grown in 4000 nanowells/well in 24-well plates and re-plated into 96-well plates after initial expansion via the ALS CellCelector™ (Sartorius Corporation, Bohemia, NY, USA). After clonal expansion, individual cell lines were evaluated based on their ratio of stimulated fluorescence to basal expression to determine maximum sensitivity.
Fluorescence assays performed on CHO-hB1R-NFAT-eGFP cells. Target cells were plated at 10,000 cells/well in a 96-well microplate (opaque black wells with clear flat bottom, Thermo Scientific, Rockford, IL, USA) using RPMI 1640 medium with 10% fetal bovine serum (FBS). After 24 h, the medium was replaced by RPMI without FBS and phenol red. […] Fluorescence was measured using a TECAN M1000 (Tecan Group Ltd., Männedorf, Switzerland) multimode microplate reader with excitation at 488 nm and emission at 507 nm. Each data point represents a ratio of two values, divided by the average fluorescence of six control wells. […] Antagonist affinity (Kb) was estimated from functional inhibition curves using the Gaddum (Schild) equation assuming competitive antagonism at human B1R: Kb = [B]/(dose-ratio–1), where [B] is the antagonist concentration, and the dose ratio is EC50 + Compound/EC50.

Consider `CC[C@H](C)[C@H](NC(=O)[C@@H](Cc1ccc2ccccc2c1)NC(=O)[C@H](CO)NC(=O)[C@](C)(Cc1ccccc1)NC(=O)CNC(=O)[C@@H]1CCCN1C(=O)[C@@H]1C[C@@H]2CCCC[C@@H]2N1C(=O)[C@H](CCCNC(=N)N)NC(=O)[C@H](CCCN)NC(C)=O)C(=O)O` [R954, AcOrn[Oic^2,^(αMe)Phe5,DβNal^7,Ile^8]desArg^9-bradykinin] (Ac-[Orn]R[Oic]PG[αMeF]S[d2Nal]I-OH), for which the IC50 in experiment [1] is 3 nM; in experiment [2], 2 nM; in experiment [3], over 10000 nM; in experiment [4], over 10000 nM; in experiment [5] (hB1R-stably expressing CHO-NFAT cells, antagonist potency, means of two independent experiments, read-out: CHO-NFAT IC50 (Table S1)), 1.4 nM. The Kb in experiment [5] (read-out: B1R-NFAT CHO Kb) was found to be 1.4 nM.
